From patent publication US9062087B2, “Phenyl C-glucoside derivatives, preparation methods and uses thereof” (Tianjin Institute of Pharmaceutical Research, priority 2010, dated 2015) come the findings set out here.

The subject of this test is healthy ICR mice. The experiment in a line: glucose tolerance test in fasted ICR mice (in vivo hypoglycemic model), serum glucose by glucose oxidase method. Conditions: ICR mice fasted 16 h, dosage 10 mg/kg in 1% sodium carboxymethylcellulose, 2 g/kg glucose i.p. 2 h after test compound (Dapagliflozin: 1.5 h); for blood glucose at 0.5 h: serum 0.5 h after glucose; for blood glucose at 1 h: serum 1 h after glucose; for blood glucose at 2 h: serum 2 h after glucose; for blood glucose at 3 h: serum 3 h after glucose; for blood glucose at 4 h: serum 4 h after glucose. The procedure: A suspension of the test compounds with […] was prepared by dissolving the sample in 1% sodium carboxymethylcellulose solution. The administration dosage is 0.2 ml/20 g body weight, which equals to a dosage of 10 mg/kg.
Female and male of healthy ICR mice are half to half, and the weight is 20-24 g, in accordance with standard level one. Animals were fasted for 16 hours. 2 g/kg glucose in saline was intraperitoneally injected 2 hours after the test compounds (for Dapagliflozin, glucose was injected 1.5 hours after medicine), and blood samples were collected from mice tall vein using capillary at fixed times of 0.5 h, 1 h, 2 h, 3 h and 4 h after challenging with glucose. The sera were separated using centrifugation. The glucose oxidase method was used to measure glucose content of serum at different time points.

`CCOc1ccc(C(F)c2cc([C@@H]3O[C@H](CO)[C@@H](O)[C@H](O)[C@H]3O)ccc2Cl)cc1` (stereo partly drawn) [Example 1, 1-{4-chloro-3-[(4-ethyoxyphenyl)fluoromethyl]phenyl}-1-deoxy-β-D-glucopyranose]: the “blood glucose at 0.5 h” value was 194.1 ± 41.3 mg/dL, the “blood glucose at 1 h” value was 161.1 ± 35.4 mg/dL, the “blood glucose at 2 h” value was 97.3 ± 31.2 mg/dL and the “blood glucose at 3 h” value was determined as 69.1 ± 22.1 mg/dL. In addition, the “blood glucose at 4 h” value is 67.2 ± 17.1 mg/dL.

On to `CCOc1ccc(C(C)c2cc([C@@H]3O[C@H](CO)[C@@H](O)[C@H](O)[C@H]3O)ccc2Cl)cc1` (stereo partly drawn) [Example 36, 1-{4-chloro-3-[1-(4-ethyoxyphenyl)ethyl]phenyl}-1-deoxy-β-D-glucopyranose], for which the “blood glucose at 0.5 h” value was found to be 189.1 ± 21.2 mg/dL, the “blood glucose at 1 h” value stood at 120.1 ± 10.2 mg/dL, the “blood glucose at 2 h” value was 113.0 ± 11.0 mg/dL and the “blood glucose at 3 h” value turned out to be 74.6 ± 21.0 mg/dL. Also, the “blood glucose at 4 h” value was found to be 69.1 ± 13.2 mg/dL.

As for `CCOc1ccc(C(C)(OC)c2cc([C@@H]3O[C@H](CO)[C@@H](O)[C@H](O)[C@H]3O)ccc2Cl)cc1` (stereo partly drawn) [Example 51, 1-{4-chloro-3-[1-(4-ethyoxyphenyl)-1-methoxyethyl]phenyl}-1-deoxy-β-D-glucopyranose], the “blood glucose at 0.5 h” value amounted to 250.5 ± 33.1 mg/dL, the “blood glucose at 1 h” value turned out to be 158.2 ± 20.6 mg/dL, the “blood glucose at 2 h” value is 123.2 ± 33.1 mg/dL and the “blood glucose at 3 h” value stood at 101.2 ± 11.7 mg/dL. Also, the “blood glucose at 4 h” value came out at 75.5 ± 21.4 mg/dL.

As to `CCOc1ccc(C(OC)c2cc([C@@H]3O[C@H](CO)[C@@H](O)[C@H](O)[C@H]3O)ccc2Cl)cc1` (stereo partly drawn) [Example 53, 1-{4-chloro-3-[1-(4-ethyoxyphenyl)(methoxyl)methyl]phenyl}-1-deoxy-β-D-glucopyranose], the “blood glucose at 0.5 h” value was determined as 199.0 ± 21.3 mg/dL, the “blood glucose at 1 h” value worked out at 171.4 ± 36.1 mg/dL, the “blood glucose at 2 h” value was found to be 110.2 ± 20.8 mg/dL and the “blood glucose at 3 h” value was determined as 93.0 ± 17.7 mg/dL. The “blood glucose at 4 h” value is 69.6 ± 17.3 mg/dL.

Consider `CCOc1ccc(C(C)(C)c2cc([C@@H]3O[C@H](CO)[C@@H](O)[C@H](O)[C@H]3O)ccc2Cl)cc1` [Example 16, 1-{4-chloro-3-[(dimethyl)(4-ethyoxyphenyl)methyl]phenyl}-1-deoxy-β-D-glucopyranose], for which the “blood glucose at 0.5 h” value stood at 157.1 ± 21.3 mg/dL, the “blood glucose at 1 h” value stood at 137.0 ± 27.7 mg/dL, the “blood glucose at 2 h” value came out at 102.4 ± 17.5 mg/dL and the “blood glucose at 3 h” value was 88.1 ± 32.2 mg/dL. Besides, the “blood glucose at 4 h” value worked out at 70.3 ± 14.2 mg/dL.

As to `CCOc1ccc(Cc2cc([C@@H]3O[C@H](CO)[C@@H](O)[C@H](O)[C@H]3O)ccc2Cl)cc1` [Dapagliflozin, reference compound], the “blood glucose at 0.5 h” value was found to be 277.1 ± 42.4 mg/dL, the “blood glucose at 1 h” value was determined as 172.1 ± 34.1 mg/dL, the “blood glucose at 2 h” value is 92.1 ± 21.1 mg/dL and the “blood glucose at 3 h” value was determined as 81.3 ± 20.1 mg/dL. Also, the “blood glucose at 4 h” value was 60.0 ± 11.0 mg/dL.

Regarding `CCOc1ccc(C(C)(F)c2cc([C@@H]3O[C@H](CO)[C@@H](O)[C@H](O)[C@H]3O)ccc2Cl)cc1` (stereo partly drawn) [Example 52, 1-{4-chloro-3-[1-(4-ethyoxyphenyl)-1-fluoroethyl]phenyl}-1-deoxy-β-D-glucopyranose], the “blood glucose at 0.5 h” value stood at 209.3 ± 30.4 mg/dL, the “blood glucose at 1 h” value amounted to 175.1 ± 20.5 mg/dL, the “blood glucose at 2 h” value was 158.6 ± 31.1 mg/dL and the “blood glucose at 3 h” value is 101.2 ± 12.4 mg/dL. Moreover, the “blood glucose at 4 h” value worked out at 80.0 ± 13.2 mg/dL.
